pIC50: −log10 of the molar value.
Target: T1, hROMK (hKir1.1) (Homo sapiens, UniProt P48048)
T1 construct: expressed in transfected cells
T1 sequence (P48048 1-391): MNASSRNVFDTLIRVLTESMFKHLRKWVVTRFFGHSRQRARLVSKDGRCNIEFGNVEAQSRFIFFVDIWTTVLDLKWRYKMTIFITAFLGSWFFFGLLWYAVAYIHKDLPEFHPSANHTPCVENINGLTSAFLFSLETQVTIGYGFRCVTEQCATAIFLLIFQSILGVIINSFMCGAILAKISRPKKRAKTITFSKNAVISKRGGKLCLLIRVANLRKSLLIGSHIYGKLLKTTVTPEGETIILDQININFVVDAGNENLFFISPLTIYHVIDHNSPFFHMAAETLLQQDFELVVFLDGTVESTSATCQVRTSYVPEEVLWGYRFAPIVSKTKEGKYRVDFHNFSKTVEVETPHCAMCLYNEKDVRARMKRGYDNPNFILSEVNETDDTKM
Experiment: Thallium Flux Assay (ROMK channel functional thallium flux, FLIPR-Tetra)
Type: cell-based
Conditions: HEK293 cells stably expressing hROMK (hKir1.1); 30 min compound incubation
In short: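 Thallium flux read by FluxOR fluorescence ([…]) for ~10 min after adding 3 mM Tl+/0.3 mM K+ final. Stable HEK-hKir1.1 cells were dye-loaded 90 min, exposed to compound 30 min at room temperature in ouabain/probenecid buffer; IC50 relative to a 3 μM control inhibitor.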

SMILES	pIC50
COc1cc(-n2cnnn2)ccc1[C@@H](O)CN1CCC2(CC1)CCN(C1=C(C)C(=O)OC1)C2=O [Example 119, 8-{(2R)-2-hydroxy-2-[2-methoxy-4-(1H-tetrazol-1-yl)phenyl]ethyl}-2-(4-methyl-5-oxo-2,5-dihydrofuran-3-yl)-1-oxo-2-aza-8-azoniaspiro[4.5]decane]	8.00
COc1cc(-n2cnnn2)ccc1[C@H](O)CN1CCC2(CC1)CCN(C1=C(C)C(=O)OC1)C2=O [Example 120, 8-{(2S)-2-hydroxy-2-[2-methoxy-4-(1H-tetrazol-1-yl)phenyl]ethyl}-2-(4-methyl-5-oxo-2,5-dihydrofuran-3-yl)-1-oxo-2-aza-8-azoniaspiro[4.5]decane]	8.00
CC1=C(N2CCC3(CCN(C[C@H](O)c4nnc(-n5cnnn5)cc4C)CC3)C2=O)COC1=O [Example 121, 8-{(2S)-2-hydroxy-2-[4-methyl-6-(1H-tetrazol-1-yl)pyridazin-3-yl]ethyl}-2-(4-methyl-5-oxo-2,5-dihydrofuran-3-yl)-1-oxo-2-aza-8-azoniaspiro[4.5]decane]	7.70
CC1=C(N2CCC3(CCN(C[C@@H](O)c4nnc(-n5cnnn5)cc4C)CC3)C2=O)COC1=O [Example 122, 8-{(2R)-2-hydroxy-2-[4-methyl-6-(1H-tetrazol-1-yl)pyridazin-3-yl]ethyl}-2-(4-methyl-5-oxo-2,5-dihydrofuran-3-yl)-1-oxo-2-aza-8-azoniaspiro[4.5]decane]	8.00
CC1=C(N2CCC3(CCN(C[C@@H](O)c4cc(C)c(-n5cnnn5)nn4)CC3)C2=O)COC1=O [Example 127, 8-{(2R)-2-hydroxy-2-[5-methyl-6-(1H-tetrazol-1-yl)pyridazin-3-yl]ethyl}-2-(4-methyl-5-oxo-2,5-dihydrofuran-3-yl)-1-oxo-2-aza-8-azoniaspiro[4.5]decane]	7.70
CC1=C(N2CCC3(CCN(C[C@H](O)c4cc(C)c(-n5cnnn5)nn4)CC3)C2=O)COC1=O [Example 128, 8-{(2S)-2-hydroxy-2-[5-methyl-6-(1H-tetrazol-1-yl)pyridazin-3-yl]ethyl}-2-(4-methyl-5-oxo-2,5-dihydrofuran-3-yl)-1-oxo-2-aza-8-azoniaspiro[4.5]decane]	7.10
CC1=C(N2CCC3(CCN(C[C@H](O)c4ccnc(-n5cnnn5)c4)CC3)C2=O)COC1=O [Example 129, 8-{(2R)-2-hydroxy-2-[2-(1H-tetrazol-1-yl)pyridin-4-yl]ethyl}-2-(4-methyl-5-oxo-2,5-dihydrofuran-3-yl)-1-oxo-2-aza-8-azoniaspiro[4.5]decane]	6.85
CC1=C(N2CCC3(CCN(C[C@@H](O)c4ccnc(-n5cnnn5)c4)CC3)C2=O)COC1=O [Example 130, 8-{(2S)-2-hydroxy-2-[2-(1H-tetrazol-1-yl)pyridin-4-yl]ethyl}-2-(4-methyl-5-oxo-2,5-dihydrofuran-3-yl)-1-oxo-2-aza-8-azoniaspiro[4.5]decane]	6.80
CC1=C(N2CCC3(CCN(C[C@H](O)c4cncc(-n5cnnn5)c4)CC3)C2=O)COC1=O [Example 131, 8-{(2R)-2-hydroxy-2-[5-(1H-tetrazol-1-yl)pyridin-3-yl]ethyl}-2-(4-methyl-5-oxo-2,5-dihydrofuran-3-yl)-1-oxo-2-aza-8-azoniaspiro[4.5]decane]	6.17
CC1=C(N2CCC3(CCN(C[C@@H](O)c4cncc(-n5cnnn5)c4)CC3)C2=O)COC1=O [Example 132, 8-{(2S)-2-hydroxy-2-[5-(1H-tetrazol-1-yl)pyridin-3-yl]ethyl}-2-(4-methyl-5-oxo-2,5-dihydrofuran-3-yl)-1-oxo-2-aza-8-azoniaspiro[4.5]decane]	6.19
CC1=C(N2CCC3(CCN(C[C@@H](O)c4c(F)cc(-n5cnnn5)cc4F)CC3)C2=O)COC1=O [Example 143, 8-{(2S)-2-[2,6-difluoro-4-(1H-tetrazol-1-yl)phenyl]-2-hydroxyethyl}-2-(4-methyl-5-oxo-2,5-dihydrofuran-3-yl)-1-oxo-2-aza-8-azoniaspiro[4.5]decane]	6.72
CC1=C(N2C=CC3(CCN(C[C@H](O)c4ccc(-n5cnnn5)nn4)CC3)C2=O)COC1=O [Example 146, 8-{(2S)-2-hydroxy-2-[6-(1H-tetrazol-1-yl)pyridazin-3-yl]ethyl}-2-(4-methyl-5-oxo-2,5-dihydrofuran-3-yl)-1-oxo-2-aza-8-azoniaspiro[4.5]dec-3-ene]	7.30
CC1=C(N2CCC3(CCN(C[C@@H](O)c4ncc(-n5cnnn5)cc4F)CC3)C2=O)COC1=O [Example 148, 8-{(2R)-2-[3-fluoro-5-(1H-tetrazol-1-yl)pyridin-2-yl]-2-hydroxyethyl}-2-(4-methyl-5-oxo-2,5-dihydrofuran-3-yl)-2,8-diazaspiro[4.5]decan-1-one]	7.00
COc1nc(-n2cnnn2)ccc1[C@@H](O)CN1CCC2(CC1)CCN(C1=C(C)C(=O)OC1)C2=O [Example 149, 8-{(2R)-2-hydroxy-2-[2-methoxy-6-(1H-tetrazol-1-yl)pyridin-3-yl]ethyl}-2-(4-methyl-5-oxo-2,5-dihydrofuran-3-yl)-2,8-diazaspiro[4.5]decan-1-one]	7.70
COc1nc(-n2cnnn2)ccc1[C@H](O)CN1CCC2(CC1)CCN(C1=C(C)C(=O)OC1)C2=O [Example 150, 8-{(2S)-2-hydroxy-2-[2-methoxy-6-(1H-tetrazol-1-yl)pyridin-3-yl]ethyl}-2-(4-methyl-5-oxo-2,5-dihydrofuran-3-yl)-2,8-diazaspiro[4.5]decan-1-one]	7.70
O=C1C=C(N2C=CC3(CCN(C[C@H](O)c4ccc(-n5cnnn5)nc4)CC3)C2=O)CO1 [Example 151, 8-{(2R)-2-hydroxy-2-[6-(1H-tetrazol-1-yl)pyridin-3-yl]ethyl}-1-oxo-2-(5-oxo-2,5-dihydrofuran-3-yl)-2-aza-8-azoniaspiro[4.5]dec-3-ene]	7.52
O=C1C=C(N2C=CC3(CCN(C[C@H](O)c4cnc(-n5cnnn5)cn4)CC3)C2=O)CO1 [Example 152, 8-{(2S)-2-hydroxy-2-[5-(1H-tetrazol-1-yl)pyrazin-2-yl]ethyl}-1-oxo-2-(5-oxo-2,5-dihydrofuran-3-yl)-2-aza-8-azoniaspiro[4.5]dec-3-ene]	6.57
CC1=C(N2C=CC3(CCN(C[C@@H](O)c4nnc(-n5cnnn5)cc4C)CC3)C2=O)COC1=O [Example 153, 8-{(2R)-2-hydroxy-2-[4-methyl-6-(1H-tetrazol-1-yl)pyridazin-3-yl]ethyl}-2-(4-methyl-5-oxo-2,5-dihydrofuran-3-yl)-1-oxo-2-aza-8-azoniaspiro[4.5]dec-3-ene]	7.40
CC1=C(N2C=CC3(CCN(C[C@H](O)c4nnc(-n5cnnn5)cc4C)CC3)C2=O)COC1=O [Example 154, 8-{(2S)-2-hydroxy-2-[4-methyl-6-(1H-tetrazol-1-yl)pyridazin-3-yl]ethyl}-2-(4-methyl-5-oxo-2,5-dihydrofuran-3-yl)-1-oxo-2-aza-8-azoniaspiro[4.5]dec-3-ene]	7.52
O=C1C=C(N2C=CC3(CCN(C[C@@H](O)c4ccc(-n5cnnn5)nc4)CC3)C2=O)CO1 [Example 155, 8-{(2S)-2-hydroxy-2-[6-(1H-tetrazol-1-yl)pyridin-3-yl]ethyl}-1-oxo-2-(5-oxo-2,5-dihydrofuran-3-yl)-2-aza-8-azoniaspiro[4.5]dec-3-ene]	7.22
CC1=C(N2C=CC3(CCN(C[C@@H](O)c4ccc(-n5cnnn5)nc4)CC3)C2=O)COC1=O [Example 156, 8-{(2S)-2-hydroxy-2-[6-(1H-tetrazol-1-yl)pyridin-3-yl]ethyl}-2-(4-methyl-5-oxo-2,5-dihydrofuran-3-yl)-1-oxo-2-aza-8-azoniaspiro[4.5]dec-3-ene]	7.70
CC1(O)CC2(CCN(C[C@H](O)c3ccc(-n4cnnn4)nc3)CC2)C(=O)N1C1=CC(=O)OC1 (stereo partly drawn) [Example 157, 3-hydroxy-8-{(2R)-2-hydroxy-2-[6-(1H-tetrazol-1-yl)pyridin-3-yl]ethyl}-3-methyl-1-oxo-2-(5-oxo-2,5-dihydrofuran-3-yl)-2-aza-8-azoniaspiro[4.5]decane]	7.15
CC1(O)CC2(CCN(C[C@H](O)c3ccc(-n4cnnn4)nn3)CC2)C(=O)N1C1=CC(=O)OC1 (stereo partly drawn) [Example 158, 3-hydroxy-8-{(2S)-2-hydroxy-2-[6-(1H-tetrazol-1-yl)pyridazin-3-yl]ethyl}-3-methyl-1-oxo-2-(5-oxo-2,5-dihydrofuran-3-yl)-2-aza-8-azoniaspiro[4.5]decane]	6.25
CC1=C(N2C=CC3(CCN(C[C@H](O)c4cnc(-n5cnnn5)cn4)CC3)C2=O)COC1=O [Example 163, 8-{(2S)-2-hydroxy-2-[5-(1H-tetrazol-1-yl)pyrazin-2-yl]ethyl}-2-(4-methyl-5-oxo-2,5-dihydrofuran-3-yl)-1-oxo-2-aza-8-azoniaspiro[4.5]dec-3-ene]	7.00
CC1(C)CC2(CCN(C[C@H](O)c3cnc(-n4cnnn4)cn3)CC2)C(=O)N1C1=CC(=O)OC1 [Example 164, 8-{(2S)-2-hydroxy-2-[5-(1H-tetrazol-1-yl)pyrazin-2-yl]ethyl}-3,3-dimethyl-1-oxo-2-(5-oxo-2,5-dihydrofuran-3-yl)-2-aza-8-azoniaspiro[4.5]decane]	7.40
CC1=CN(C2=C(C)C(=O)OC2)C(=O)C12CCN(C[C@H](O)c1ccc(-n3cnnn3)nn1)CC2 [Example 166, 8-{(2S)-2-hydroxy-2-[6-(1H-tetrazol-1-yl)pyridazin-3-yl]ethyl}-4-methyl-2-(4-methyl-5-oxo-2,5-dihydrofuran-3-yl)-1-oxo-2-aza-8-azoniaspiro[4.5]dec-3-ene]	7.00

Source: patent US9765074B2, “Inhibitors of the renal outer medullary potassium channel” (Merck Sharp & Dohme Corp., priority 2013, dated 2017)
